Reference: ChEMBL document CHEMBL4819002, “Design, synthesis, evaluation, and SAR of 4-phenylindoline derivatives, a novel class of small-molecule inhibitors of the programmed cell death-1/ programmed cell death-ligand 1 (PD-1/PD-L1) interaction” (Eur J Med Chem, 2021)
Active and inactive are the calls of the source. No cut-off for these calls is given here.

Key:
[1] = target: T1, Programmed cell death protein 1/Programmed cell death 1 ligand 1 (Homo sapiens, UniProt Q9NZQ7); experiment: Inhibition of PD1 (unknown origin)/PDL1 (unknown origin) protein-protein interaction by HTRF assay; assay type: protein-complex assay
[2] = target: T1, Programmed cell death protein 1/Programmed cell death 1 ligand 1; experiment: Inhibition of PD-1/PD-L1 interaction in CHO cells expressing PD-Ll/TCR cocultured with human Jurkat cells expressing PD-1 assessed as activation of effector Jurkat T cells incubated for 6 hrs by luciferase reporter gene assay; assay type: cell-based
[3] = target: T2, Programmed cell death protein 1/Programmed cell death 1 ligand 1 (Homo sapiens) (UniProt Q15116+Q9NZQ7); experiment: Inhibition of PD-1/PD-L1 interaction in CHO cells expressing PD-Ll/TCR cocultured with human Jurkat cells expressing PD-1 assessed as maximum relative luminescence intensity value upto 10 uM incubated for 6 hrs by luciferase reporter gene assay; assay type: cell-based; details: dose microM <=10, time 6.0 hrs
[4] = target: T2, Programmed cell death protein 1/Programmed cell death 1 ligand 1 (Homo sapiens); experiment: Inhibition of PD-1/PD-L1 interaction in CHO cells expressing PD-Ll/TCR cocultured with human Jurkat cells expressing PD-1 assessed as maximum relative luminescence intensity value incubated for 6 hrs by luciferase reporter gene assay; assay type: cell-based
[5] = Cytotoxicity against CHO cells expressing PD-Ll /TCR cocultured with human Jurkat cells expressing PD-1 measured after 24 hrs by Cell Titer-Glo based luminescent cell viability assay; assay type: functional
[6] = target: T2, Programmed cell death protein 1/Programmed cell death 1 ligand 1 (Homo sapiens); experiment: Inhibition of PD-1/PD-L1 interaction in CHO cells expressing PD-Ll/TCR cocultured with human Jurkat cells expressing PD-1 assessed as maximum relative luminescence intensity value at > 3.3 uM incubated for 6 hrs by luciferase reporter gene assay; assay type: cell-based; details: dose microM >3.3, time 6.0 hrs

T1 sequence (Q15116 whole entry): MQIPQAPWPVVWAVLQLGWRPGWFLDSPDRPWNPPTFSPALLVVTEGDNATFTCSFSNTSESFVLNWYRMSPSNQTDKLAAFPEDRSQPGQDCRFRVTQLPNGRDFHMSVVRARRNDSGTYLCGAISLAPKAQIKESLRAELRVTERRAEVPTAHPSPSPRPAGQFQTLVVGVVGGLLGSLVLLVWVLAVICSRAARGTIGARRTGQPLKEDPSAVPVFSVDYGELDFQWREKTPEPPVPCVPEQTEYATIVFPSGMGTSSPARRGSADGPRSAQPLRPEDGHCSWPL
T1 sequence (Q9NZQ7 whole entry): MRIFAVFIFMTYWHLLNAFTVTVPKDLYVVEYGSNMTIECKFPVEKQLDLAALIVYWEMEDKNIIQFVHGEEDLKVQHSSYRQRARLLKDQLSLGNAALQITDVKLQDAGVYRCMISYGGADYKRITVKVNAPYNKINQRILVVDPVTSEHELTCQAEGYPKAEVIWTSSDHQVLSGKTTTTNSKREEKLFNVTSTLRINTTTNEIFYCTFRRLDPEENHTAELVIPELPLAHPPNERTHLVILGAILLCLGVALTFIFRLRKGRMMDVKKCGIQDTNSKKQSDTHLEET

SMILES | IC50 [1] [nM] | also measured
CC(=O)NCCNCc1cc(Cl)c(OCc2cccc(-c3cccc4c3CCN4CCCN3CCC(O)CC3)c2C)cc1OCc1cccc(C#N)c1 | 58 | –
CC(=O)NCCNCc1cc(Cl)c(OCc2cccc(-c3cccc4c3CCN4CCCn3cccc3)c2C)cc1OCc1cccc(C#N)c1 | 2470 | –
CC(=O)NCCNCc1cc(Cl)c(OCc2cccc(-c3cccc4c3CCN4CCCN3CCC(O)CC3)c2C)cc1OCc1cccnc1 | 79 | –
CC(=O)NCCNCc1cc(Cl)c(OCc2cccc(-c3cccc4c3CCN4CCCN3CCC(O)CC3)c2C)cc1OCC1CCCCC1 | 1130 | –
CCN(CC)CCCN1CCc2c(-c3cccc(COc4cc(OCc5cccc(C#N)c5)c(CNCCNC(C)=O)cc4Cl)c3C)cccc21 | 114 | –
Cc1c(COc2cc(OCc3cncc(C#N)c3)c(CNCCO)cc2Cl)cccc1-c1cccc2c1CCN2CCCN1CCC(O)CC1 | 31 | –
CC(=O)NCCNCc1cc(Cl)c(OCc2cccc(-c3cccc4c3CCN4CCCN3CCOCC3)c2C)cc1OCc1cccc(C#N)c1 | 185 | –
COC(=O)[C@H](CO)NCc1cc(Cl)c(OCc2cccc(-c3cccc4c3CCN4CCCN3CCC(O)CC3)c2C)cc1OCc1cncc(C#N)c1 | 41 | –
CC(=O)NCCNCc1cc(Cl)c(OCc2cccc(-c3cccc4c3CCN4CCCN3CCC(F)C3)c2C)cc1OCc1cccc(C#N)c1 (stereo unspecified) | 202 | –
CC(=O)NCCNCc1cc(Cl)c(OCc2cccc(-c3cccc4c3CCN4CCN3CCC(O)CC3)c2C)cc1OCc1cccc(C#N)c1 | 322 | –
Cc1c(COc2cc(OCc3cncc(C#N)c3)c(CNC(CO)CO)cc2Cl)cccc1-c1cccc2c1CCN2CCCN1CCC(O)CC1 | 38 | –
CC(=O)NCCNCc1cc(Cl)c(OCc2cccc(-c3cccc4c3CCN4CCCN3CCCCC3)c2C)cc1OCc1cccc(C#N)c1 | 197 | –
CC(=O)NCCNCc1cc(Cl)c(OCc2cccc(-c3cccc4c3CCN4CCCN3CCC3)c2C)cc1OCc1cccc(C#N)c1 | 98 | –
CC(=O)NCCNCc1cc(Cl)c(OCc2cccc(-c3cccc4c3CCN4CCCN3CCC(O)CC3)c2C)cc1OCc1cncc(C#N)c1 | 17 | EC50 [2]: 430 nM; RLU [3]: 1910; Activity [4]: Dose-Dependent Effect; GI50 [5]: 16900 nM
CC(=O)NCCNCc1cc(Cl)c(OCc2cccc(-c3cccc4c3CCN4CCCN3CCC(O)CC3)c2C)cc1OCc1ccccc1 | 446 | –
CCCN1CCc2c(-c3cccc(COc4cc(OCc5cccc(C#N)c5)c(CNCCNC(C)=O)cc4Cl)c3C)cccc21 | 1730 | –
CC(=O)NCCNCc1cc(Cl)c(OCc2cccc(-c3ccc4c(c3)OCCO4)c2C)cc1OCc1cccc(C#N)c1 | 40 | EC50 [2]: > 3300 nM; Activity [6]: inactive; GI50 [5]: 6300 nM
CC(=O)NCCNCc1cc(Cl)c(OCc2cccc(-c3cccc4c3CCN4C)c2C)cc1OCc1cccc(C#N)c1 | 878 | –
CC(=O)NCCNCc1cc(Cl)c(OCc2cccc(-c3cccc4c3CCN4CCCN3CCC(O)C3)c2C)cc1OCc1cccc(C#N)c1 (stereo unspecified) | 63 | –
CCN1CCc2c(-c3cccc(COc4cc(OCc5cccc(C#N)c5)c(CNCCNC(C)=O)cc4Cl)c3C)cccc21 | 743 | –
COCCCN1CCc2c(-c3cccc(COc4cc(OCc5cccc(C#N)c5)c(CNCCNC(C)=O)cc4Cl)c3C)cccc21 | 905 | –
CC(=O)NCCNCc1cc(Cl)c(OCc2cccc(-c3cccc4c3CCN4)c2C)cc1OCc1cccc(C#N)c1 | 1360 | –
CC(=O)NCCNCc1cc(Cl)c(OCc2cccc(-c3cccc4c3CCN4CCCN3CCCC3)c2C)cc1OCc1cccc(C#N)c1 | 77 | –
CC(=O)NCCNCc1cc(Cl)c(OCc2cccc(-c3cccc4c3CCN4CCCN3CCC(F)CC3)c2C)cc1OCc1cccc(C#N)c1 | 878 | –
Cc1c(COc2cc(OCc3cncc(C#N)c3)c(CN[C@@H](CO)C(=O)O)cc2Cl)cccc1-c1cccc2c1CCN2CCCN1CCC(O)CC1 | 12 | EC50 [2]: 2900 nM; RLU [3]: 1710; Activity [4]: Dose-Dependent Effect; GI50 [5]: > 20000 nM
